The values below come from patent US6281234A, “(2-Acylaminothiazole-4-yl)acetic acid derivative” (American Home Products Corporation, priority 1999, dated 2001).

This test addresses T1, Recombinant Rat Protein Tyrosine Phosphatase 1B (rPTP1B) (Rattus norvegicus, UniProt P20417).
T1 construct: laboratory of Dr. Barry Goldstein, Thomas Jefferson University (obtained from, not a commercial purchase)
T1 sequence (P20417 1-432): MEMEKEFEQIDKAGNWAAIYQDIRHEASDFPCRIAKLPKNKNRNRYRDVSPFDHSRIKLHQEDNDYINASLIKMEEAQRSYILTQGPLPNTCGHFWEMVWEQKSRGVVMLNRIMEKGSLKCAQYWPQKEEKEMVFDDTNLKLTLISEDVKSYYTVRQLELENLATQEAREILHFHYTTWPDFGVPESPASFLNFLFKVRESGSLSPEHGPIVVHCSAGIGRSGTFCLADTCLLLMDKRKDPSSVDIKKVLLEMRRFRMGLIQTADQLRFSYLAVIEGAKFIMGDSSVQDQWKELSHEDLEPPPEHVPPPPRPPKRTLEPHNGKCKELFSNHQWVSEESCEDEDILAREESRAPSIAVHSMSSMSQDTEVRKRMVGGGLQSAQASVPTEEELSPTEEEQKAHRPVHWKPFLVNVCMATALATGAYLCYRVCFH
In words: Inhibition of recombinant rat PTP1B (rPTP1B) activity using p-nitrophenylphosphate as substrate. Type of test: biochemical. The conditions noted are these: p-nitrophenyl phosphate substrate, pH 7.4, 37° C., 30 min; for inhibition at 25 µM: pH 7.4, All compounds administered at 25 μM; for % inhibition: All compounds administered at 25 μM. On the procedure:
Inhibition of Recombinant Rat Protein Tyrosine Phosphatase 1B (rPTP1B) Activity Using p-nitrophenylphosphate as a Substrate.
Measurement of pNPPase Activity.
The reaction is started by the addition of p-nitrophenyl phosphate and after 30 minutes at 37° C., the reaction is terminated by adding 1 ml of 0.1 N NaOH. […] The samples are read at 410 nm in a spectrophotometer and are evaluated based on a calibration curve of p-nitrophenol standard solution.
Compounds were screened robotically at a single concentration of ~25 μM. The results are expressed as percent of control, in that the amount of p-nitrophenol formed in the compound treated samples (nmol/minute/mg protein) is compared to the amount (nmol/minute/mg protein) formed in the untreated samples. p-Nitrophenylphosphatase activity is also determined in each experiment and is expressed per minute per mg protein.

`CCCCCC/C=C/CCCCCCCC(=O)Nc1nc(CC(=O)O)cs1` [Example 7, 2-[((E)-1-Oxo-9-hexadecenyl)amino]-4-thiazoleacetic Acid]: the inhibition – broadly, the share of the control response that was lost under treatment – at 25 µM was 83.8%.

Take `CCCCCCCC/C=C/CCCCCCCC(=O)Nc1nc(CC(=O)O)cs1` [Example 3]: the % inhibition (usually the drop in the measured response relative to a control, in per cent) (25 µM) turned out to be 58.16%.

For `CCCCCCCCCCC/C=C\CCCCC(=O)Nc1nc(CC(=O)O)cs1` [Example 5], the inhibition at 25 µM came to 95%.

Regarding `[Na+].[Na+].[Na+].[O]=[V]([O-])([O-])[O-]` [Na3 VO4, reference compound], the “% inhibition” value is recorded as 86.3%.

On to `CCCCCC/C=C/CCCCCCCCCC(=O)Nc1nc(CC(=O)O)cs1` [Example 8, 2-[((E)-1-Oxo-11-octadecenyl)amino]-4-thiazoleacetic Acid], for which the inhibition at 25 µM is 96.6%.

Regarding `CCCCCCCCC#CCCCCCCCC(=O)Nc1nc(CC(=O)O)cs1` [Example 4], the inhibition at 25 µM amounted to 84.8%.

On to `CCCCCCCC/C=C/CCCCCCCC(=O)Nc1nc(CC(=O)O)cs1` [Example 2, 2-[((E)-1-Oxo-9-octadecenyl)amino]-4-thiazoleacetic Acid], for which, where the note is “25 µM”, the “% inhibition” value is 93.9%.

On to `CCCCCC/C=C\CCCCCCCC(=O)Nc1nc(CC(=O)O)cs1` [Example 6, 2-[((Z)-1-Oxo-9-hexadecenyl)amino]-4-thiazoleacetic Acid], for which the inhibition at 25 µM was 93.8%.

For `CC/C=C\C/C=C\C/C=C\CCCCCCCC(=O)Nc1nc(CC(=O)O)cs1` [Example 9, 2-[((Z,Z,Z)-1-Oxo-9,12,15-octadecatrienyl)amino]-4-thiazoleacetic Acid], the inhibition at 25 µM was found to be 92.4%.

As for `CCCCCCCC/C=C\CCCCCCCC(=O)Nc1nc(CC(=O)O)cs1` [Example 1, 2-[((Z)-1-Oxo-9-octadecenyl)amino]-4-thiazoleacetic Acid], the inhibition at 25 µM came out at 93.4%.
